{"source": "patent US20040053234A1", "about": "“Polynucletides that control delta-6 desaturase genes and methods for identifying compounds for modulating delta-6 desaturase” (priority 2000, published 2004)", "key": {"[1]": {"target": "T1, hD6D-1 (with V5/6xHis tags) (Homo sapiens, UniProt O95864)", "T1 sequence (O95864 1-444)": "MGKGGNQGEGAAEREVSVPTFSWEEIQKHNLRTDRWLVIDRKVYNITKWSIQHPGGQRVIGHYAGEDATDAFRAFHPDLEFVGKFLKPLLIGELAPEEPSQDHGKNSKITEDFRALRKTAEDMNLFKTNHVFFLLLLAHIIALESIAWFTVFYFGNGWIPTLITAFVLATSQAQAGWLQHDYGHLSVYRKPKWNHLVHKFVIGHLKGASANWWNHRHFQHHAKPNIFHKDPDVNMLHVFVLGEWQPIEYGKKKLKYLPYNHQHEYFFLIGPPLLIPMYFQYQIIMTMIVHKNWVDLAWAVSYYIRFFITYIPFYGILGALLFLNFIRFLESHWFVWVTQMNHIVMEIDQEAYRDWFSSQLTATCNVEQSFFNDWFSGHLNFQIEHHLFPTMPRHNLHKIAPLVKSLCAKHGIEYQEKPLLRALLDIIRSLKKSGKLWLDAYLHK", "experimental": "(§1) Saccharomyces cerevisiae transformed with pYr5003.1 without V5/6×His tags or pTh5002.1 with V5/6×His tags were grown in modified SC-U medium with 2% galactose to induce the expression of the gene that encodes the fatty acid delta-6-desaturase. After 16 h incubation, cells were centrifuged at 2060×g for 5 min at 4° C., washed once with distilled water and centrifuged again. The volume and weight of the cell pellet were measured Cells were suspended (1:2 w/v) in 0.1 M Tris.SO4 (pH 9.4), 10 mM DTT and incubated at 30° C. After 10 min incubation, the cell pellet was obtained by centrifugation, washed once (1:20 w/v) with 1.2 M sorbitol and suspended (1:1 w/v) in 1.2 M sorbitol, 20 mM phosphate buffer (pH 7.4) as described elsewhere (Daum et al., 1982, J. Biol. Chem., 257: 13028-13033). The 15,800× g (1 min) supernatant of Lyticase was added to the cell suspension at a concentration of 2000 U/ml and the suspension incubated at 30° C. with 50 rpm shaking. Conversion to spheroplasts was checked after 40 min incubation by diluting the suspension with distilled water followed by observation under the microscope (Schatz G. and Kovac L., 1974, Methods in Enzymology, 31A: 627-632).\n(§2) Spheroplasts were harvested by centrifugation at 2060×g for 5 min at 4° C. and washed once with 1.2 M sorbitol. Spheroplasts were suspended in modified SC-U medium with 1% tergitol, 1.2 M sorbitol and 2% galactose to maintain the induction conditions and to give an OD600 reading of approximately 2.5-3.0. A 10 ml aliquot of the spheroplast suspension was transferred to a 125 ml Erlenmeyer flask and incubated with 200 μL of n-propyl gallate in ethanol (final concentration in the culture ranged between 0.7 and 14.1 mM) at 30° C. in an orbital incubator set at 270 rpm After 30 min incubation 1 μCi of [1-^14C]-alpha-linolenic or [1-^14C]-linoleic acids were added to the cultures to a final concentration of 2 μM and further incubated for 120 min. At this time point, turbidity readings at OD600 were taken, spheroplasts were harvested by centrifugation and washed with Tris buffer (100 mM, pH 8.0) containing 0.1%/o BSA. Total lipids were extracted as described below.\n(§3) The radioactivity from aliquots of the supernatant, spheroplasts and whole cells was determined by liquid scintillation counting using a LS6500-Scintillation System (Beckman) prior to the lipid extraction. Total lipids were extracted from cells or spheroplasts with chloroform/methanol (2:1 v/v) according to the method of Folch et al., 1957, J. Biol. Chem., 226: 497-509. The total lipid extracts were methylated using boron trifluoride in methanol at 90° C. for 30 min.\n(§4) The desaturase activity was determined by measuring the conversion of radiolabelled linoleic acid to gammna-linolenic acid (18:2n-6 to 18:3n-6) and alpha-linolenic acid to stearidonic acid (18:3n-3 to 18:4n-3). The percent inhibition was calculated as described elsewhere (Kawashima et al., 1996, Biosci. Biotech. Biochem., 60:1672-1676):\n(§5) Inhibition % =(activity without the inhibitor−activity with the inhibitor)/activity without the inhibitor"}, "[2]": {"target": "T1, hD6D-1 (with V5/6xHis tags)", "assay": "Inhibition of hD6D-1 in whole cells of transformed Saccharomyces cerevisiae", "format": "cell-based", "design": "expressed in transfected cells; host or cells: Saccharomyces cerevisiae INVSc1 transformed with pTh5002.1 (pYES2/CT)", "settings": "[1-14C]-alpha-linolenic acid", "experimental": "Transformed Saccharomyces cerevisiae pTh5002.1 with V5/6xHis tags were incubated in a 125 ml Erlenmeyer flask containing 9 ml of modified SC-U medium with 1% tergitol (O.D.6000.4, approximately 3.2×10^6 cells) and 200 μl of 7, 14 or 28 mM n-propyl gallate in ethanol. After 1 h incubation in an orbital incubator at 270 rpm and 30° C., 1 μCi of potassium salts of [1-^14C]-linoleic or [1-^14C]-alpha-linolenic acids (dissolved in modified SC-U medium and 1% tergitol) were added to the cell suspension to a final concentration of 2 μM. After 5 h incubation with the inhibitor, cells reached the log phase and the transgene expression was induced with the addition of 1 ml of galactose to a final concentration of 2%. Yeast were further incubated for 19 h (OD600 range 7.2-9.3) until they were harvested by centrifugation at 5000×g for 10 minutes at 4° C. Cell were washed with Tris buffer (100 mM, pH 8.0) containing 0.1% BSA and total lipids were extracted as described below.\nThe radioactivity from aliquots of the supernatant, spheroplasts and whole cells was determined by liquid scintillation counting using a LS6500-Scintillation System (Beckman) prior to the lipid extraction. […]\nThe desaturase activity was determined by measuring the conversion of radiolabelled linoleic acid to gammna-linolenic acid (18:2n-6 to 18:3n-6) and alpha-linolenic acid to stearidonic acid (18:3n-3 to 18:4n-3). […]"}, "delta-6-desaturase": {"system": "delta-6-desaturase", "assay": "Inhibition of delta-6-desaturase in rat liver microsomes incubated with [1-14C]-dihomogammalinolenic acid", "format": "biochemical", "settings": "for % of inhibition: substrate [1-14C]-dihomogammalinolenic acid", "protocol": "Wistar rats under light halothane (15% in mineral oil) anesthesia were sacrificed by exsanguination during periods of high enzyme activity. Livers are immediately rinsed with cold 0.9% NaCl solution, weighed and minced with scissors. All procedures are performed at 4° C. unless specified otherwise. Livers are homogenized in a solution (1:3 w/v) containing 0.25 M sucrose, 62 mM potassium phosphate buffer (pH 7.0), 0.15 M KCl, 1.5 mM N-acetylcysteine, 5 mM MgCl2, and 0.1 mM EDTA using 4 strokes of a Potter-Elvehjem tissue homogenizer. The homogenate is centrifuged at 10,400×g for 20 min to eliminate mitochondria and cellular debris. The supernatant is filtered through a 3-layer cheesecloth and centrifuged at 105,000×g for 60 min. The microsomal pellet is gently resuspended in the same homogenization solution with a small glass/teflon homogenizer and stored at −70° C. The absence of mitochondrial contamination is enzymatically assessed. The protein concentration is measured using bovine serum albumin as the standard.\nReactions are started by adding 2 mg of microsomal protein to pre-incubated tubes containing 0.20 μCi of the substrate fatty acid (DGLA) at a final concentration of 33.3 μM in 1.5 ml of homogenization solution, containing NaF (42 mM), niacinamide (0.33 mM), ATP (1.57 mM), NADH (1.0 mM), coenzyme A (0.09 mM) and a range of concentrations of the enzyme modulators. N-propyl gallate was added to the incubation medium to a final concentration of 0.02-0.32 mM. The tubes are vortexed vigorously and after 15 min incubation in a shaking water bath (37° C.), the reactions are stopped and fatty acids are analyzed as described in herein. Alternatively, fatty acid methyl esters are analyzed by capillary column gas chromatography (GC)."}, "[3]": {"target": "T1, hD6D-1 (with V5/6xHis tags)", "assay": "Inhibition of hD6D-1 in spheroplasts of transformed Saccharomyces cerevisiae", "settings": "[1-14C]-alpha-linolenic acid", "experimental": "as §1, §2, §3, §4, §5"}, "fatty acid desaturases": {"system": "fatty acid desaturases", "settings": "Kawashima et al., 1996; cited from earlier work"}, "delta 6 desaturase": {"target": "T2, delta 6 desaturase (Rattus norvegicus, UniProt Q9Z122)", "T2 construct": "from tissue; host or cells: rat liver microsomes (female Wistar rats)", "T2 sequence (Q9Z122 whole entry)": "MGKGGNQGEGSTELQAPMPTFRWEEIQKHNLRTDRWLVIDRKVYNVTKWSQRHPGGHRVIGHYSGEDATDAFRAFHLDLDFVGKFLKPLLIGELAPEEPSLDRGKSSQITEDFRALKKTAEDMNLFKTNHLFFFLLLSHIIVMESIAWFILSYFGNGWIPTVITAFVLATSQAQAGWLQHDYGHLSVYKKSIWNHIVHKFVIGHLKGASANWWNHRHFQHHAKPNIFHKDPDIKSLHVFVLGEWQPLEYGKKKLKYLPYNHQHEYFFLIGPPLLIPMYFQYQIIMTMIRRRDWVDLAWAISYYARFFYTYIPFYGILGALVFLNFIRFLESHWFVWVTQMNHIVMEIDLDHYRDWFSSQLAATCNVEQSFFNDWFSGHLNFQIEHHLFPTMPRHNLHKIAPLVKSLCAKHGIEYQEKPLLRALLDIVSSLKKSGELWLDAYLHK", "assay": "Inhibition of delta 6 desaturase in rat liver microsomes incubated with alpha-linolenic or linoleic acid", "format": "biochemical", "protocol": "As proposed by Leikin and Brenner (Leikin A. I. and Brenner R. R., 1989, Biochim. Biophys. Acta. September 25, 1005: 187-191), the following are best conditions for the desaturation assays since the enzymes are saturated with the substrates and the reactions are linear within the incubation time. Reactions were started by adding 2 or 3 mg of microsomal protein to pre-incubated tubes containing 0.20 μCi of the substrate fatty acid at a final concentration of 33.3 μM in 1.5 ml of the homogenization solution, containing NaF (42 mM), niacinamide (0.33 mM), ATP (1.57 mM), NADH (1.01 mM) and coenzyme A (0.09 mM) as described elsewhere (Leikin A. I. and Brenner R. R., 1989, Biochim. Biophys. Acta. September 25,1005: 187-191).The tubes were vortexed vigorously and after 15 min incubation in a shaling water bath (37° C.), the reactions were stopped by the addition of 2 ml of 10% (w/v) KOH in ethanol. Lipids in the incubation mixture were saponified at 80° C. for 45 min under N2. The samples were then left in ice for 5 min before acidification. The fatty acids were extracted with hexane and esterified with BF3/methanol at 90° C. for 30 min (Morrison W. R. and Smith L. M., 1964, J. Lipid Res., 5: 600-608).\nHepatic microsomes were obtained from female Wistar rats by differential centrifigation as described in Example 3.\nIncubations were performed as described in Example 3. N-propyl gallate was added to the incubation medium to a final concentration that ranged from 0.02 to 0.32 mM."}, "[4]": {"target": "T3, rD6D-1 (without V5/6xHis tags) (Rattus norvegicus, UniProt Q9Z122)", "T3 sequence (Q9Z122 whole entry)": "as above", "assay": "Inhibition of rD6D-1 in spheroplasts of transformed Saccharomyces cerevisiae", "settings": "[1-14C]-linoleic acid", "experimental": "as §1, §2, §3, §4, §5"}, "[5]": {"target": "T3, rD6D-1 (without V5/6xHis tags)", "experimental": "as §1, §2, §3, §4, §5"}}}
{"smiles": "CCCOC(=O)c1cc(O)c(O)c(O)c1", "note": "[n-propyl gallate, Propyl ester of 3,4,5-trihydroxybenzoic acid]", "values": [{"measurement": "inhibition", "setting": "[1]", "result": 82.3, "unit": "%"}, {"measurement": "% of inhibition", "setting": "[2]; inhibitor 7 mM", "result": 36.7, "unit": "%"}, {"measurement": "% of inhibition", "setting": "[2]; inhibitor 14 mM", "result": 73.6, "unit": "%"}, {"measurement": "% of inhibition", "setting": "delta-6-desaturase; inhibitor 0.02 mM", "result": 62.9, "unit": "%"}, {"measurement": "% of inhibition", "setting": "delta-6-desaturase; inhibitor 0.04 mM", "result": 74.9, "unit": "%"}, {"measurement": "% of inhibition", "setting": "delta-6-desaturase; inhibitor 0.08 mM", "result": 86.4, "unit": "%"}, {"measurement": "% of inhibition", "setting": "delta-6-desaturase; inhibitor 0.16 mM", "result": 88.7, "unit": "%"}, {"measurement": "% of inhibition", "setting": "delta-6-desaturase; inhibitor 0.32 mM", "result": 100.0, "unit": "%"}, {"measurement": "Inhibitor concentration at which a plateau of inhibition was reached", "setting": "delta-6-desaturase; rat liver microsomes, Table 20", "result": "0.08 to 0.32", "unit": "mM"}, {"measurement": "% of inhibition", "setting": "[3]; inhibitor 0.7 mM", "result": 11.6, "unit": "%"}, {"measurement": "% of inhibition", "setting": "[3]; inhibitor 1.4 mM", "result": 18.8, "unit": "%"}, {"measurement": "% of inhibition", "setting": "[3]; inhibitor 2.8 mM", "result": 56.4, "unit": "%"}, {"measurement": "% of inhibition", "setting": "[3]; inhibitor 14.1 mM", "result": 100, "unit": "%"}, {"measurement": "Mode of inhibition", "setting": "fatty acid desaturases", "result": "noncompetitive inhibitor"}, {"measurement": "% of inhibition 18:2n-6 → 18:3n-6", "setting": "delta 6 desaturase; inhibitor 0.02 mM", "result": 18.0, "unit": "%"}, {"measurement": "% of inhibition 18:3n-3 → 18:4n-3", "setting": "delta 6 desaturase; inhibitor 0.02 mM", "result": 28.7, "unit": "%"}, {"measurement": "% of inhibition 18:2n-6 → 18:3n-6", "setting": "delta 6 desaturase; inhibitor 0.04 mM", "result": 32.0, "unit": "%"}, {"measurement": "% of inhibition 18:3n-3 → 18:4n-3", "setting": "delta 6 desaturase; inhibitor 0.04 mM", "result": 42.5, "unit": "%"}, {"measurement": "% of inhibition 18:2n-6 → 18:3n-6", "setting": "delta 6 desaturase; inhibitor 0.08 mM", "result": 64.5, "unit": "%"}, {"measurement": "% of inhibition 18:3n-3 → 18:4n-3", "setting": "delta 6 desaturase; inhibitor 0.08 mM", "result": 54.2, "unit": "%"}, {"measurement": "% of inhibition 18:2n-6 → 18:3n-6", "setting": "delta 6 desaturase; inhibitor 0.16 mM", "result": 82.6, "unit": "%"}, {"measurement": "% of inhibition 18:3n-3 → 18:4n-3", "setting": "delta 6 desaturase; inhibitor 0.16 mM", "result": 71.3, "unit": "%"}, {"measurement": "% of inhibition 18:2n-6 → 18:3n-6", "setting": "delta 6 desaturase; inhibitor 0.32 mM", "result": 98.7, "unit": "%"}, {"measurement": "% of inhibition 18:3n-3 → 18:4n-3", "setting": "delta 6 desaturase; inhibitor 0.32 mM", "result": 79.5, "unit": "%"}, {"measurement": "% of inhibition", "setting": "[4]; inhibitor 0.7 mM", "result": 8.9, "unit": "%"}, {"measurement": "% of inhibition", "setting": "[4]; inhibitor 1.4 mM", "result": 39.2, "unit": "%"}, {"measurement": "% of inhibition", "setting": "[4]; inhibitor 2.8 mM", "result": 77.4, "unit": "%"}, {"measurement": "% of inhibition", "setting": "[4]; inhibitor 14.1 mM", "result": 100, "unit": "%"}, {"measurement": "inhibition", "setting": "[5]", "result": 100, "unit": "%"}]}
